The values that follow come from article PMC3893112 (Journal of medicinal chemistry, 2013).

The target in test [1] is T1, human κ opioid receptor over-expressed in CHO cells (Homo sapiens, UniProt P41145). Nature of the test: [35S]GTPγS binding assay, agonist mode, κ. Type of test: biochemical. (In general: Binding of GTPγS marks nucleotide exchange on a G protein.)
Test [2] addresses T2, human δ opioid receptor over-expressed in CHO cells (Homo sapiens, UniProt P41143). Kind of test: Inhibition of DPDPE-stimulated [35S]GTPγS binding. Type of test: biochemical. The following applies: for Antagonist δ, DPDPE Ke: vs DPDPE-stimulated [35S]GTPγS binding.
For test [3], the target named is T2, human δ opioid receptor over-expressed in CHO cells. Nature of the test: [35S]GTPγS binding assay, agonist mode, δ. The following applies: for Agonist activity at the δ receptor (in words): [35S]GTPγS. The class given is biochemical.
For test [4], the target named is T1, human κ opioid receptor over-expressed in CHO cells. Nature of the test: Inhibition of κ agonist-stimulated [35S]GTPγS binding. The following applies: for Antagonist κ, U50,488 Ke: vs κ agonist-stimulated [35S]GTPγS binding. The class given is biochemical.
A further test addresses human MOR (Homo sapiens, UniProt P35372). Kind of test: Competition radioligand binding, [3H]DAMGO. The following applies: Ki vs Kd of DAMGO.
In test [5] the target is human μ opioid receptor over-expressed in CHO cells (Homo sapiens, UniProt P35372). Nature of the test: [35S]GTPγS binding assay, agonist mode, μ. The class given is biochemical.
Chain of human μ opioid receptor over-expressed in CHO cells (P35372 whole entry): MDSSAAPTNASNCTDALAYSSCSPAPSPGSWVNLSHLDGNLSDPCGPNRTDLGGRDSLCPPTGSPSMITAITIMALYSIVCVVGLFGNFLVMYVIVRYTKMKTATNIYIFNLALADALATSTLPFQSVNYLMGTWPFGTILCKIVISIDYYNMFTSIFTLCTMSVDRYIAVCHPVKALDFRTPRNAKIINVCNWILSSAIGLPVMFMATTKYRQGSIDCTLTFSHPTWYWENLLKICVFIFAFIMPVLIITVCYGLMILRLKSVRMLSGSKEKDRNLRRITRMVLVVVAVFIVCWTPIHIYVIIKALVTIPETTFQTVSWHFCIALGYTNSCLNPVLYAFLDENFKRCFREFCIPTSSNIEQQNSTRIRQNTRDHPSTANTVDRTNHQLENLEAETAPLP

SMILES strings stand for the structures. Some results are limits rather than exact numbers.

T1 sequence (P41145 whole entry): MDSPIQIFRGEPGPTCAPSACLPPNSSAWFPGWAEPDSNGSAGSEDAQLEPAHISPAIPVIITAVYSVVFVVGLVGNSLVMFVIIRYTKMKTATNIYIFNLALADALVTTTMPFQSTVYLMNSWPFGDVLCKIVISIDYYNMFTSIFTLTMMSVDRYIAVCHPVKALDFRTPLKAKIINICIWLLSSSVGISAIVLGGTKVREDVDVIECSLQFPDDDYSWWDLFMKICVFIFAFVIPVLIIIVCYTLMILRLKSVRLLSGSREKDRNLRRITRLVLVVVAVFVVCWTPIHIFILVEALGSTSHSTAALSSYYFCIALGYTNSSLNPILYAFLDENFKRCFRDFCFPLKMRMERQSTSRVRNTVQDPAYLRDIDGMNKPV
Chain of human MOR (P35372 whole entry): as the sequence (P35372 whole entry) above
T2 sequence (P41143 whole entry): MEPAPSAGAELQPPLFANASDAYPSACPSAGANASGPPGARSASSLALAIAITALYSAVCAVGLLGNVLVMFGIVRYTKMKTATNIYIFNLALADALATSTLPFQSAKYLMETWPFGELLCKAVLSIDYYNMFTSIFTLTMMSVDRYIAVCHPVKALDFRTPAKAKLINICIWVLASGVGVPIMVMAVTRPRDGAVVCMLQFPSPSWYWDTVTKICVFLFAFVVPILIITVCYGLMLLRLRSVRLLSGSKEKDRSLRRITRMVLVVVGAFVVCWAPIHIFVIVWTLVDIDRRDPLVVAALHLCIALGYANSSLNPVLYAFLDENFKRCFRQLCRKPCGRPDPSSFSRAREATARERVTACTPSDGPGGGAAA

Consider `CCN[C@H]1C[C@H]2C[C@@](c3cccc(O)c3)(C1)[C@H](C)CN2CCCc1ccccc1.Cl.Cl` [Compound 5c, 7-Ethylamino-5-(3-hydroxyphenyl)-4-methyl-2-(3-phenlylprop-1-yl)-2-azabicyclo[3.3.1]nononane], for which the half-maximal effective concentration (EC50) in test [1] is more than 5000 nM. Moreover, in test [2], the Kb was 230 ± 93 nM and the “Antagonist δ, DPDPE Ke” value came to 230 nM. Also, in test [3], the EC50 is more than 5000 nM and the “Agonist activity at the δ receptor (in words)” value was “complete loss of agonist activity”. In test [4], the Kb was determined as 60.8 ± 19 nM and the “Antagonist κ, U50,488 Ke” value turned out to be 60.8 nM.

For `C[C@@H]1CN(CCCc2ccccc2)[C@H]2C[C@H](N(C)CC3CC3)C[C@]1(c1cccc(O)c1)C2.Cl.Cl` [Compound 5h, 7-(N-Cyclopropylmethylmethylamino)-5-(3-hydroxyphenyl)-4-methyl-2-(3-phenylprop-1-yl)-2-azabicyclo[3.3.1]nononane], at human MOR, the “Affinity for MOR compared with DAMGO” value is given as “higher affinity for MOR than DAMGO”.

As to `C[C@@H]1CN(CCCc2ccccc2)[C@@H]2CCC[C@]1(c1cccc(O)c1)C2.Cl` [Compound 4, 3-[(1R,4S,5S)-4-Methyl-2-(3-phenylpropyl)-2-azabicyclo[3.3.1]non-5-yl]phenol], the EC50 in test [1], in test [3] and in test [5] was more than 5000 nM throughout.

With `C[C@@H]1CN(CCCc2ccccc2)[C@H]2C[C@H](NCC3CC3)C[C@]1(c1cccc(O)c1)C2.Cl.Cl` [Compound 5e, 7-(N-Cyclopropylmethylamino)-5-(3-hydroxyphenyl)-4-methyl-2-(3-phenylprop-1-yl)-2-azabicyclo[3.3.1]nononane], the EC50 in test [1] and in test [3] was more than 5000 nM throughout.

`C[C@@H]1CN(CCCc2ccccc2)[C@H]2C[C@H](N)C[C@]1(c1cccc(O)c1)C2.Cl.Cl` [Compound 5a, (−)-5-(3-hydroxyphenyl)-4-methyl-2-(3-phenylpropyl)-2-azabicyclo[3.3.1]nonan-7-amine]: in test [1], the 50% effective concentration (EC50) is more than 5000 nM. Further, in test [4], the Kb is 10.1 ± 3 nM and the “Antagonist κ, U50,488 Ke” value was found to be 10.1 nM.

In test [1], `C[C@H]1CN(CCCc2ccccc2)[C@@H]2C[C@@H](N)C[C@@]1(c1cccc(O)c1)C2` [Compound 6, (1S,4R,5R,7S)-7-aminomorphan] displayed a half-maximal effective concentration (EC50) of more than 5000 nM. In test [2], the Kb was determined as 25.2 ± 8 nM and the “Antagonist δ, DPDPE Ke” value was 25.2 nM. Moreover, the EC50 in test [3] is more than 5000 nM. Moreover, the half-inhibitory concentration (IC50) in test [5] amounted to 20.6 nM. Also, in test [4], the Kb was 21.7 ± 7 nM and the “Antagonist κ, U50,488 Ke” value is given as 21.7 nM.

As to `CCN(C)[C@H]1C[C@H]2C[C@@](c3cccc(O)c3)(C1)[C@H](C)CN2CCCc1ccccc1` [Compound 5g, 7-(N-Ethylmethylamino)-5-(3-hydroxyphenyl)-4-methyl-2-(3-phenylprop-1-yl)-2 azabicyclo[3.3.1]nononane], the EC50 in test [1] and in test [3] was more than 5000 nM each time. The Kb in test [2] is more than 5000 nM; in test [4], 93 ± 29 nM.

`C[C@@H]1CN(CCCc2ccccc2)[C@H]2C[C@H](N(C)C)C[C@]1(c1cccc(O)c1)C2.Cl.Cl` [Compound 5f, 7-Dimethylamino-5-(3-hydroxyphenyl)-4-methyl-2-(3-phenylprop-1-yl)-2-azabicyclo[3.3.1]nononane] returned an EC50 in test [1] of more than 5000 nM. In addition, the “Affinity for MOR compared with DAMGO” value at human MOR was “higher affinity for MOR than DAMGO”. In test [4], the Kb was 176 ± 50 nM and the “Antagonist κ, U50,488 Ke” value was found to be 176 nM.

Consider `CCCN[C@H]1C[C@H]2C[C@@](c3cccc(O)c3)(C1)[C@H](C)CN2CCCc1ccccc1.Cl.Cl` [Compound 5d, 5-(3-Hydroxyphenyl)-4-methyl-2-(3-phenylprop-1-yl)-7-propylamino-2-azabicyclo[3.3.1]nononane], for which, in test [2], the Kb is 69.4 ± 16 nM and the “Antagonist δ, DPDPE Ke” value turned out to be 69.4 nM. Further, in test [3], the EC50 was more than 5000 nM and the “Agonist activity at the δ receptor (in words)” value is “no agonist activity”.

`CN[C@H]1C[C@H]2C[C@@](c3cccc(O)c3)(C1)[C@H](C)CN2CCCc1ccccc1.Cl.Cl` [Compound 5b, 5-(3-Hydroxyphenyl)-4-methyl-7-methylamino-2-(3-phenylprop-1-yl)-2-azabicyclo[3.3.1]nononane] displayed a concentration giving a half-maximal response (EC50) in test [1] of more than 5000 nM. The “Affinity for MOR compared with DAMGO” value at human MOR is listed as “higher affinity for MOR than DAMGO”. Moreover, in test [4], the Kb was found to be 43.8 ± 8 nM and the “Antagonist κ, U50,488 Ke” value is on record as 43.8 nM.

As a reminder, the EC50 is the concentration giving half of the maximal effect. A high value points to a need for much substance. As a reminder, the IC50 is the concentration that gives 50% inhibition.
